Calls of active or inactive are those of the source. The rule behind the calls is not given here.
Key:
MV4-11 [1] = test: Cell cycle arrest in human MV4-11 cells assessed as accumulation of cells at G1-phase at 0.04 uM measured after 24 hrs by propidium iodide staining based flow cytometry (reference value: 61.42%); format: functional
MV4-11 [2] = test: Cell cycle arrest in human MV4-11 cells assessed as accumulation of cells at S-phase at 0.08 uM measured after 24 hrs by propidium iodide staining based flow cytometry (reference value: 23.35%); format: functional
MV4-11 [3] = test: Cell cycle arrest in human MV4-11 cells assessed as accumulation of cells at S-phase at 0.16 uM measured after 24 hrs by propidium iodide staining based flow cytometry (reference value: 23.35%); format: functional
MV4-11 [4] = test: Cell cycle arrest in human MV4-11 cells assessed as accumulation of cells at G2/M-phase at 0.32 uM measured after 24 hrs by propidium iodide staining based flow cytometry (reference value: 15.23%); format: functional
MV4-11 [5] = test: Cell cycle arrest in human MV4-11 cells assessed as accumulation of cells at G1-phase at 5 uM measured after 24 hrs by propidium iodide staining based flow cytometry (reference value: 61.42%); format: functional
MDA-MB-468 = test: Cell cycle arrest in human MDA-MB-468 cells assessed as accumulation of cells at G2/M-phase at 2.5 uM measured after 24 hrs by propidium iodide staining based flow cytometry (reference value: 26.49%); format: functional
COLO 205 [6] = test: In vivo inhibition of CDK4/CDK6 in human COLO 205 cells xenografted CD1 nu/nu mouse assessed as reduction in TopoIIalpha expression at 12.5 to 50 mg/kg, po administered via gavage measured after 24 hrs by Western blot analysis; format: functional, organism-based; conditions: dose 12.5-50 mg/kg
[7] = Toxicity in human COLO 205 cells xenografted CD1 nu/nu mouse assessed as body weight loss at 25 to 100 mg/kg, po administered once daily via gavage for 21 days measured twice per week during compound dosing; format: organism-based; conditions: in vivo, dose 25-100 mg/kg, time 21 day
[8] = Toxicity in human COLO 205 cells xenografted CD1 nu/nu mouse assessed as decrease in red cell mass at 50 mg/kg, po administered daily via gavage for 56 days and measured on day 41 to 69 by hematological analysis; format: organism-based; conditions: in vivo, 1344 h, time 41-69 day
[9] = Inhibition of recombinant human full-length N-terminal 6His-tagged/beta-subunit N-terminal GST tagged CK2 expressed in Sf21 insect cells at 200 nM using casein kinase 2 substrate peptide relative to control; conditions: condition cancer
COLO 205 [10] = conditions: Mus musculus, CD1, dose 50.0 mg/kg, route po, time lower 1.0 hrs, time upper […], TDE = time-dependent effect
COLO 205 [11] = conditions: Mus musculus, CD1, dose 25-50 mg/kg, route po
COLO 205 [12] = conditions: Mus musculus, CD1, dose 50.0 mg/kg, route po
COLO 205 [13] = conditions: Homo sapiens, dose 25-100 mg/kg, route po, time 35.0 day
COLO 205 [14] = conditions: Homo sapiens, dose 50.0 mg/kg, route po, time > 3.0 weeks
Description: Antitumor activity against human COLO 205 cells xenografted in CD1 nu/nu mouse assessed as tumor growth inhibition at 50 mg/kg, po administered daily via gavage for 2 cycles of over 3 weeks on/1 week rest

Mus musculus [15] = species on record: Mus musculus; conditions: CD1, dose 50.0 mg/kg, route po, time 22.0 day
Mus musculus [16] = species on record: Mus musculus; conditions: CD1, dose 50.0 mg/kg, route po, time 17.0 day

Q: With `CCN1CCN(Cc2ccc(Nc3ncc(F)c(-c4cc(F)c5nc(C)n(C(C)C)c5c4)n3)nc2)CC1` [ABEMACICLIB] as the molecule, how does the Activity (MV4-11 [1]) read?
A: Its Activity is 77.47%.

Q: And the Activity (MV4-11 [2])?
A: Its Activity is 8.59%.

Q: And the Activity (MV4-11 [3])?
A: Its Activity is 4.59%.

Q: And the Activity (MV4-11 [4])?
A: Its Activity is 1.82%.

Q: What about the Activity (MV4-11 [5]) of the same molecule?
A: The Activity was 95.56%.

Q: What about the Activity (MDA-MB-468) of the same molecule?
A: Its Activity is 28.82%.

Q: And the inhibition (COLO 205 [6])?
A: The inhibition was “Active”.

Q: What about the Activity [7] of the same molecule?
A: The Activity was “Non-Toxic”.

Q: And the Activity [8]?
A: Its Activity is “Non-Toxic”.

Q: And the inhibition at 0.2 µM [9]?
A: The inhibition at 0.2 µM was greater than 90%.

Q: And the inhibition (COLO 205 [10])?
A: The inhibition was “Tde”.

Q: What about the inhibition (COLO 205 [11]) of the same molecule?
A: Its inhibition is “Dose-Dependent Effect”.

Q: What about the inhibition (COLO 205 [12]) of the same molecule?
A: The inhibition was “inactive”.

Q: And the TGI (COLO 205 [13])?
A: The TGI was “Dose-Dependent Effect”.

Q: And the TGI (COLO 205 [14])?
A: The TGI was “Active”.

Q: And the inhibition (Mus musculus [15])?
A: Its inhibition is “inactive”.

Q: What about the inhibition (Mus musculus [16]) of the same molecule?
A: Its inhibition is “Active”.

— ChEMBL document CHEMBL5678811 (Invest New Drugs, 2014)
